Like-named read-outs stand apart in the source and are kept apart here.
How the values were obtained:
[1] = Stability of the powder in sealed aluminium foil bag, purity and titre by HPLC; format: physicochemical; conditions: protected from light; for Titre, starting values: HPLC titre of acid moiety; for Titre, starting values / Purity, starting values: start; for Purity, starting values: airtight container
Procedure: The stability of the compounds listed in the following table, under powder form and in sealed aluminium foil bag, was tested, keeping the samples in airtight container, protected from light and measuring the purity and the titre thereof after 6 and 12 months.
In particular, the stability of the acid moiety was observed by HPLC, detecting the purity and titre thereof.

[2] = mice, one capsule
Procedure: The biological tests were carried out on 12 mice weighing 200-300 g, administering to each of them one 3 mg capsule containing the dose of the selected compound, as below reported, dispersed in lactose.
The haematic values of the selected compound were subsequently evaluated after regular time intervals (0, 30, 60, 95, 120 min.).

[3] = cited from earlier work
[4] = background statement, cited from earlier work
[5] = after nine months, U.S. Pat. No. 5,817,659 (Example 1)
[6] = after twelve months, U.S. Pat. No. 6,271,374 (Example 1)

Row | Titre, starting values [1] [%] | Purity, starting values [1] | Purity after 6 months [1] | Titre after 6 months [1] [%] | Purity after 12 months [1] | Titre after 12 months [1] [%] | haematic value ([2]; time 0.5 h) [nmol/L] | haematic value ([2]; time 1.5 h) [nmol/L] | haematic value ([2]; time 2 h) [nmol/L] | SMILES | titre decrease [3, 5] | other results
1 | 54.8 | 99.2 | 99.1 | 54.5 | 98.7 | 54.2 | – | – | – | N[C@H]1C(O)O[C@H](CO)[C@H](O)[C@@H]1O.N[C@H]1C(O)O[C@H](CO)[C@H](O)[C@@H]1O.Nc1nc2ncc(CNc3ccc(C(=O)N[C@@H](CCC(=O)O)C(=O)O)cc3)nc2c(=O)[nH]1 [D-GAL folate, D-galactosamine L-folate] | – | –
2 | 55.2 | 99.1 | 98.9 | 55 | 99.0 | 54.8 | 83.2 ± 4.9 | 83.8 ± 4.3 | 82.8 ± 4.3 | CN1c2c(nc(N)[nH]c2=O)NCC1CNc1ccc(C(=O)NC(CCC(=O)O)C(=O)O)cc1.NC1C(O)OC(CO)C(O)C1O.NC1C(O)OC(CO)C(O)C1O (mixture of isomers) [D-GLU 5-MTHF, D-glucosamine 5-methyl-(6R,S)-tetrahydrofolate] | – | –
3 | – | – | – | – | – | – | – | – | – | Nc1nc(=O)c2c([nH]1)NCC(CNc1ccc(C(=O)N[C@@H](CCC(=O)[O-])C(=O)[O-])cc1)N2.[Ca+2] (stereo partly drawn) [(6R,S)-tetrahydrofolic acid calcium salts] | about 2% | –
4 | – | – | – | – | – | – | – | – | – | Nc1nc(=O)c2c([nH]1)NC[C@H](CNc1ccc(C(=O)N[C@@H](CCC(=O)[O-])C(=O)[O-])cc1)N2.[Ca+2] [(6S)-tetrahydrofolic acid calcium salts] | about 2% | titre decrease [3, 6]: about 7%
5 | – | – | – | – | – | – | – | – | – | CN1c2c([nH]c(N)nc2=O)NC[C@@H]1CNc1ccc(C(=O)N[C@@H](CCC(=O)[O-])C(=O)[O-])cc1.[Ca+2] [5-methyl-(6S)-tetrahydrofolic acid calcium salts] | – | titre decrease ([3]; after twelve months, U.S. Pat. No. 6,441,168 (Example 1)): about 1%
6 | – | – | – | – | – | – | – | – | – | Nc1nc2ncc(CNc3ccc(C(=O)N[C@@H](CCC(=O)O)C(=O)O)cc3)nc2c(=O)[nH]1 [Folic acid, N-[4-[[(2-amino-1,4-dihydro-4-oxo-6-pteridinyl)methyl]amino]benzoyl]-L-glutamic acid] | – | solubility in alcohol ([4]; alcohol): insoluble; solubility in dilute solutions of alkali hydroxides and carbonates [4]: readily soluble; solubility in water ([4]; water): very slightly soluble
7 | – | – | – | – | – | – | – | – | – | Nc1nc(=O)c2c([nH]1)NC[C@@H](CNc1ccc(C(=O)N[C@@H](CCC(=O)[O-])C(=O)[O-])cc1)N2.[Ca+2] [(6R)-tetrahydrofolic acid calcium salts] | about 2% | titre decrease [3, 6]: about 7%
8 | 55.7 | 99.3 | 99.0 | 55.4 | 98.5 | 55.1 | 83.7 ± 5.2 | 83.7 ± 4.3 | 83 ± 4.3 | CN1c2c(nc(N)[nH]c2=O)NCC1CNc1ccc(C(=O)NC(CCC(=O)O)C(=O)O)cc1.NC1C(O)OC(CO)C(O)C1O.NC1C(O)OC(CO)C(O)C1O [D-GLU (6S)-5-MTHF, D-glucosamine 5-methyl-(6S)-tetrahydrofolate] | – | haematic value ([2]; time 1 h): 86.1 ± 5.0 nmol/L
9 | 55.5 | 99.1 | 98.9 | 55.2 | 98.7 | 55.3 | – | – | – | CN1c2c(nc(N)[nH]c2=O)NCC1CNc1ccc(C(=O)NC(CCC(=O)O)C(=O)O)cc1.NC1C(O)OC(CO)C(O)C1O.NC1C(O)OC(CO)C(O)C1O (mixture of isomers) [D-GAL (6R,S)-5-MTHF, D-galactosamine 5-methyl-(6R,S)-tetrahydrofolate] | – | –
10 | 54.6 | 99.1 | 98.8 | 54.3 | 98.7 | 54 | 75.3 ± 4.3 | 78.4 ± 4.3 | 76.8 ± 4.3 | N[C@H]1C(O)O[C@H](CO)[C@@H](O)[C@@H]1O.N[C@H]1C(O)O[C@H](CO)[C@@H](O)[C@@H]1O.Nc1nc2ncc(CNc3ccc(C(=O)N[C@@H](CCC(=O)O)C(=O)O)cc3)nc2c(=O)[nH]1 [D-GLU folate, D-glucosamine L-folate] | – | haematic value ([2]; time 1 h): 79.8 ± 5.2 nmol/L

Reference: US7947662B2, “Folates, compositions and uses thereof” (priority 2008, dated 2011)
